In patent publication US8846699B2, “Quinazoline derivatives as a multiplex inhibitor and method for the preparation thereof” (Hanmi Pharm. Co., Ltd., priority 2005, dated 2014):

Key:
[1] = tested on: skin cancer cell line, A431; test: Inhibitory effect on growth of cancer cell line A431, SRB; type: cell-based; conditions: Homo sapiens, A-431, 72 h, overexpressed EGFR1 (HER-1)
Method in brief: (§1)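 Growth inhibition was measured by sulforhodamine-B staining (absorbance 570 nm) of TCA-fixed cells after 72 h compound exposure at 37 °C, 5% CO2. Test concentrations ran from 10 μM in 10-fold steps to 10^−4, with DMSO below 1%, in 10% FBS DMEM.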

[2] = tested on: breast cancer cell line, SK-Br3; test: Inhibitory effect on growth of cancer cell line SK-Br3, SRB; type: cell-based; conditions: Homo sapiens, SK-BR-3, 72 h, overexpressed EGFR2 (HER-2)
Method in brief: as §1

[3] = target: VEGFR2 (KDR) (Homo sapiens (Human), UniProt P35968); test: VEGFR2 (KDR) enzyme assay, fluorescence polarization; type: biochemical; conditions: 5 μM ATP, poly(Glu, Tyr) substrate
Method in brief: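 Buffer: 20 mM HEPES pH 7.4 with 5 mM MgCl2, 2 mM MnCl2 and 50 μM Na3VO4. Compound (0.0001–10 μM) was premixed 10 min with VEGFR2 (200 ng/10 μl), then poly(Glu,Tyr) substrate (10 ng/ml) and 5 μM ATP were added for 1 h at room temperature. EDTA-quenched samples were read by FP after 30 min with antibody and tracer.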

[4] = target: EGFR1 (HER-1) (Homo sapiens (Human), UniProt P00533); test: EGFR1 (HER-1) enzyme assay, fluorescence polarization; type: biochemical; conditions: 100 μM ATP, poly(Glu, Tyr) substrate
[5] = tested on: Human Umbilical Vein Endothelial Cell (HUVEC); test: Inhibitory effect on growth of human umbilical vein endothelial cell (HUVEC), MTS; type: cell-based; conditions: Homo sapiens, 96 h, 10 ng/ml VEGF, absorbance 490 nm
[6] = tested on: colon and rectal cancer cell line, SW-620; test: Inhibitory effect on growth of cancer cell line SW-620, SRB; type: cell-based; conditions: Homo sapiens, 72 h, not having overexpressed EGFR and EGFR2
Method in brief: as §1

Sequence of VEGFR2 (KDR) (P35968 20-1356): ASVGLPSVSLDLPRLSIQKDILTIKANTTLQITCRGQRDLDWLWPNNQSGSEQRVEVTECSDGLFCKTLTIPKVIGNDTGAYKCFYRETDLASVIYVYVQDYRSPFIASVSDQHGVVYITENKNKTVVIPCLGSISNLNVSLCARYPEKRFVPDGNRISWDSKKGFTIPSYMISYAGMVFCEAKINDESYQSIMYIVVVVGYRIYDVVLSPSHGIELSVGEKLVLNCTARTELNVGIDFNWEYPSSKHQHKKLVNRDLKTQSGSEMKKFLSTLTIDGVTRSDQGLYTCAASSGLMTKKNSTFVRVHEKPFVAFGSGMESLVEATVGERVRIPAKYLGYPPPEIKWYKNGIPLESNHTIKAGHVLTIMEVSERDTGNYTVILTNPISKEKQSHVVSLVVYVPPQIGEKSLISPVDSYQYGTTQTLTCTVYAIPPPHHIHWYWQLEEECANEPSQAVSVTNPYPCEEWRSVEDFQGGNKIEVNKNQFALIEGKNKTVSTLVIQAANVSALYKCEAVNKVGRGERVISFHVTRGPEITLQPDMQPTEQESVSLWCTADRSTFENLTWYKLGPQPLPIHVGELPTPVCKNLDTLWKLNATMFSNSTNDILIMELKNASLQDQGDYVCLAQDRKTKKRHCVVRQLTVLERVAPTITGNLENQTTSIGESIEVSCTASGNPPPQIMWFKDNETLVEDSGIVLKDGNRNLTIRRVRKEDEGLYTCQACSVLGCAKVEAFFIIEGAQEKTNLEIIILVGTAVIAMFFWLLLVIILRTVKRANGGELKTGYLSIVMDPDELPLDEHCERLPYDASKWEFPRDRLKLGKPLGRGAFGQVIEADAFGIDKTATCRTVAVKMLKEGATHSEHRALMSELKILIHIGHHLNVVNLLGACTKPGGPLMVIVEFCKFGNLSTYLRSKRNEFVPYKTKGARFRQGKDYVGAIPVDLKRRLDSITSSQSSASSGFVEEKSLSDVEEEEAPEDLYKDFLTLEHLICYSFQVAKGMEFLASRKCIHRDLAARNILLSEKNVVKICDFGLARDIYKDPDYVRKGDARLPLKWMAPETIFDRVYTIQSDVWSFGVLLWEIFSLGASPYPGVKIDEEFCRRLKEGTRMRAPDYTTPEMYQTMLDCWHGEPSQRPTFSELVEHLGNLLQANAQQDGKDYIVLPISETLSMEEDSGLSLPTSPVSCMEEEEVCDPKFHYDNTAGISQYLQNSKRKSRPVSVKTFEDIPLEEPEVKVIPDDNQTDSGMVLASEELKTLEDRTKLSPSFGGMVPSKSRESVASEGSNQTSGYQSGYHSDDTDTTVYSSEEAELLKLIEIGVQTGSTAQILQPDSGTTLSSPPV
Sequence of EGFR1 (HER-1) (P00533 25-1210): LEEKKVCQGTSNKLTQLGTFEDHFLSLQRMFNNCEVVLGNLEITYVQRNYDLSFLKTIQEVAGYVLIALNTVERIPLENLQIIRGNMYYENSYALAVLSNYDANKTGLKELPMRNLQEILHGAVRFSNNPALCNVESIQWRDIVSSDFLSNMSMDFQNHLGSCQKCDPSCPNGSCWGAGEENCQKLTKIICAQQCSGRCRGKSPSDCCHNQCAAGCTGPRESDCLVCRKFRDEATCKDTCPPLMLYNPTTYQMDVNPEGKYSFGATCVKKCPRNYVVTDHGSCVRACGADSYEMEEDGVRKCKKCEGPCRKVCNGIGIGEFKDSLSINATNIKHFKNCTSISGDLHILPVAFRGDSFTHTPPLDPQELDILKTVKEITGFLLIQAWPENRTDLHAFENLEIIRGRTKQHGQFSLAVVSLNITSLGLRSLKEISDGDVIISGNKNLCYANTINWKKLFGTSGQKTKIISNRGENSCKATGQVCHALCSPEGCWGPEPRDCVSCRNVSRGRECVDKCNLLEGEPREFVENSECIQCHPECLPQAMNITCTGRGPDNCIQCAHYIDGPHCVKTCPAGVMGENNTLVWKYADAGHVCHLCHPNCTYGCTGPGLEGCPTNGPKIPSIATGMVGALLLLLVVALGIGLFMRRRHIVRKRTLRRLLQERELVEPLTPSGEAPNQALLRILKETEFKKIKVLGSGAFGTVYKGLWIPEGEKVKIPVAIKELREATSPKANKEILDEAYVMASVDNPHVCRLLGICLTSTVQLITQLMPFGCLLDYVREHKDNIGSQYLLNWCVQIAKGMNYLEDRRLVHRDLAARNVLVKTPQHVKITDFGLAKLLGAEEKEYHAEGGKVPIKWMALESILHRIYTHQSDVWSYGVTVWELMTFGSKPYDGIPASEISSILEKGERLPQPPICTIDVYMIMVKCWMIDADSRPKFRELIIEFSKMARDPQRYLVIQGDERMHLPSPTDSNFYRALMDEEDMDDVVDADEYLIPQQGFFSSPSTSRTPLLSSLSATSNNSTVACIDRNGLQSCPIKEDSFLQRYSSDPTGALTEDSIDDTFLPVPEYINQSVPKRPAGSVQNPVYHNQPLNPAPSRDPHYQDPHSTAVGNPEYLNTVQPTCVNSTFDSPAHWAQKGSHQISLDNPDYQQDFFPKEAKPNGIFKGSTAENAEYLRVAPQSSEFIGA

| IC50 [1] [µM] | IC50 [2] [µM] | IC50 [3] [µM] | IC50 [4] [µM] | IC50 [6] [µM] | SMILES | IC50 [5] [µM] |
| --- | --- | --- | --- | --- | --- | --- |
| 0.015 | 0.071 | 0.066 | 0.019 | 9.57 | C=CC(=O)Nc1cc2c(Nc3ccc(Br)cc3F)ncnc2cc1OCCNC(=O)C=CC [Example 50, but-2-enoic acid {2-[6-acryloylamino-4-(4-bromo-2-fluoro-phenylamino)-quinazolin-7-yloxy]-ethyl}-amide] | 0.101 |
| 0.012 | 0.223 | 0.875 | 0.016 | 4.76 | C=CC(=O)Nc1cc2c(Nc3ccc(Br)cc3F)ncnc2cc1OCCNC(=O)C=CCN(C)C [Example 53, 4-dimethylamino-but-2-enoic acid {2-[6-acryloylamino-4-(4-bromo-2-fluoro-phenylamino)-quinazolin-7-yloxy]-ethyl}-amide] | 0.964 |
| 0.153 | 0.128 | 0.654 | 0.198 | 10 | C=CC(=O)Nc1cc2c(Nc3ccc(Br)cc3F)ncnc2cc1OCCNC(=O)CN(C)CC [Example 56, N-(4-(4-bromo-2-fluoro-phenylamino)-7-{2-[2-(ethyl-methyl-amino)-acetylamino]-ethoxy}-quinazolin-6-yl)-acrylamide] | 0.691 |
| 0.045 | 0.111 | 0.198 | 0.044 | 10 | C=CC(=O)Nc1cc2c(Nc3ccc(Br)cc3F)ncnc2cc1OCCNC(=O)CCN(CC)CC [Example 59, N-{4-(4-bromo-2-fluoro-phenylamino)-7-[2-(3-diethylamino-propionylamino)-ethoxy]-quinazolin-6-yl}-acrylamide] | 0.204 |
| 0.125 | 0.939 | 0.685 | 0.136 | 9.57 | C=CC(=O)Nc1cc2c(Nc3ccc(Br)cc3F)ncnc2cc1OCCNC(=O)CNC [Example 60, N-{4-(4-bromo-2-fluoro-phenylamino)-7-[2-(2-methylamino-acetylamino)-ethoxy]-quinazolin-6-yl}-acrylamide] | 0.689 |
| 0.596 | 0.694 | 0.954 | 0.652 | 10 | C=CC(=O)Nc1cc2c(Nc3ccc(Br)cc3F)ncnc2cc1OCC(=O)NCCN(CC)CC [Example 65, N-{4-(4-bromo-2-fluoro-phenylamino)-7-[(2-diethylamino-ethylcarbamoyl)-methoxy]-quinazolin-6-yl}-acrylamide] | 0.964 |
| 0.073 | 0.983 | 0.215 | 0.089 | 2.21 | C=CC(=O)Nc1cc2c(Nc3ccc(Br)cc3F)ncnc2cc1OCCNC(=O)CCO [Example 67, N-{4-(4-bromo-2-fluoro-phenylamino)-7-[2-(3-hydroxy-propionylamino)-ethoxy]-quinazolin-6-yl}-acrylamide] | 0.351 |
| 0.265 | 0.564 | 0.687 | 0.156 | 0.725 | C=CC(=O)Nc1cc2c(Nc3ccc(F)cc3F)ncnc2cc1OCCNC(=O)CN(C)C [Example 68, N-[4-(2,4-difluorophenylamino)-7-{2-[2-(dimethylamino)-acetylamino]-ethoxy}-quinazolin-6-yl]-acrylamide] | 0.682 |

Further lines, the molecule ahead of its results:

| SMILES | IC50 [1] [µM] | IC50 [2] [µM] | IC50 [3] [µM] | IC50 [4] [µM] | IC50 [6] [µM] | IC50 [5] [µM] |
| --- | --- | --- | --- | --- | --- | --- |
| C=CC(=O)Nc1cc2c(Nc3ccc(Br)cc3F)ncnc2cc1OCCNC(=O)C(C)C [Example 48, N-[4-(4-bromo-2-fluoro-phenylamino)-7-(2-isobutyrylamino-ethoxy)-quinazolin-6-yl]-acrylamide] | 0.114 | 0.07 | 0.698 | 0.128 | 10 | 0.697 |
| C=CC(=O)Nc1cc2c(Nc3ccc(Br)cc3F)ncnc2cc1OCCNC(=O)C(=C)C [Example 49, N-{2-[6-acryloylamino-4-(4-bromo-2-fluoro-phenylamino)-quinazolin-7-yloxy]-ethyl}-2-methyl-acrylamide] | 0.062 | 0.243 | 0.854 | 0.069 | 4.59 | 0.964 |
| C=CC(=O)Nc1cc2c(Nc3ccc(Br)cc3F)ncnc2cc1OCCNC(=O)C=CCC [Example 52, pent-2-enoic acid {2-[6-acryloylamino-4-(4-bromo-2-fluoro-phenylamino)-quinazolin-7-yloxy]-ethyl}-amide] | 0.037 | 0.084 | 0.354 | 0.036 | 10 | 0.35 |
| C=CC(=O)Nc1cc2c(Nc3ccc(Br)c(Cl)c3F)ncnc2cc1OCCNC(=O)NC(C)(C)C [Example 54, N-{4-(4-bromo-3-chloro-2-fluoro-phenylamino)-7-[2-(3-t-butyl-ureido)-ethoxy]-quinazolin-6-yl}-acrylamide] | 0.059 | 0.456 | 0.423 | 0.045 | 10 | 0.568 |
| C=CC(=O)Nc1cc2c(Nc3ccc(Br)cc3F)ncnc2cc1OCCNCC(C)=O [Example 55, N-{4-(4-bromo-2-fluoro-phenylamino)-7-[2-(2-oxo-propylamino)-ethoxy]-quinazolin-6-yl}-acrylamide] | 0.426 | 0.437 | 0.471 | 0.589 | 4.54 | 0.359 |
| C=CC(=O)Nc1cc2c(Nc3ccc(Br)cc3F)ncnc2cc1OCCNC(=O)CN [Example 57, N-[7-[2-(2-amino-acetylamino)-ethoxy]-4-(4-bromo-2-fluoro-phenylamino)-quinazolin-6-yl]-acrylamide] | 0.091 | 0.781 | 0.235 | 0.089 | 9.57 | 0.379 |
| C=CC(=O)Nc1cc2c(Nc3ccc(Br)cc3F)ncnc2cc1OCCNC(=O)C(C)N(C)C (stereo not drawn) [Example 58, N-{4-(4-bromo-2-fluoro-phenylamino)-7-[2-(2-dimethylamino-propionylamino)-ethoxy]-quinazolin-6-yl}-acrylamide] | 0.116 | 0.395 | 0.954 | 0.125 | 5.51 | 0.945 |
| C=CC(=O)Nc1cc2c(Nc3ccc(Br)cc3F)ncnc2cc1OCCNC(=O)CCN(C)C [Example 61, N-{4-(4-bromo-2-fluoro-phenylamino)-7-[2-(3-dimethylamino-propionylamino)-ethoxy]-quinazolin-6-yl}-acrylamide] | 0.006 | 0.059 | 0.354 | 0.009 | 10 | 0.384 |
| C=CC(=O)Nc1cc2c(Nc3ccc(Br)cc3F)ncnc2cc1OCCNC(=O)OC [Example 63, {2-[6-acryloylamino-4-(4-bromo-2-fluoro-phenylamino)-quinazolin-7-yloxy]-ethyl}-carbamic acid methylester] | 0.14 | 0.198 | 0.084 | 0.158 | 10 | 0.102 |
| C=CC(=O)Nc1cc2c(Nc3ccc(Br)cc3F)ncnc2cc1OCCNC(=O)CCOC [Example 64, N-{4-(4-bromo-2-fluoro-phenylamino)-7-[2-(3-methoxy-propionylamino)-ethoxy]-quinazolin-6-yl}-acrylamide] | 0.072 | 0.36 | 0.231 | 0.07 | 4.59 | 0.298 |
